Data reported in patent US11352330B2, “Phenoxymethyl derivatives” (Hoffmann-La Roche Inc., priority 2015, dated 2022).

Biological target: human ATX (Homo sapiens (Human), UniProt Q13822)
Assay: Human ATX enzyme inhibition assay (fluorescence quenching, MR121 substrate)
Assay type: biochemical
Conditions: human His-tagged ATX 30 nM, MR121 substrate 1 μM, 30° C.
Protocol: Human ATX Enzyme Inhibition Assay
ATX inhibition was measured by a fluorescence quenching assay using a specifically labeled substrate analogue (MR121 substrate). To obtain this MR121 substrate, BOC and TBS protected 6-amino-hexanoic acid (R)-3-({2-[3-(2-{2-[2-(2-amino-ethoxy)-ethoxy]-ethoxy}-ethoxy)-propionylamino]-ethoxy}-hydroxy-phosphoryloxy)-2-hydroxy-propyl ester (Ferguson et al., Org Lett 2006, 8 (10), 2023) was labeled with MR121 fluorophore (CAS 185308-24-1, 1-(3-carboxypropyl)-11-ethyl-1,2,3,4,8,9,10,11-octahydro-dipyrido[3,2-b:2′,3′-i]phenoxazin-13-ium) on the free amine of the ethanolamine side and then, after deprotection, subsequently with tryptophan on the side of the aminohexanoic acid.
Assay working solutions were made as follows:
Assay buffer (50 mM Tris-HCl, 140 mM NaCl, 5 mM KCl, 1 mM CaCl2, 1 mM MgCl2, 0.01% Triton-X-100, pH 8.0;
ATX solution: ATX (human His-tagged) stock solution (1.08 mg/mL in 20 mM bicine, pH 8.5, 0.15 M NaCl, 10% glycerol, 0.3% CHAPS, 0.02% NaN3), diluted to 1.4-2.5× final concentration in assay buffer;
MR121 substrate solution: MR121 substrate stock solution (800 μM MR121 substrate in DMSO), diluted to 2-5× final concentration in assay buffer.
Test compounds (10 mM stock in DMSO, 8 μL) were obtained in 384 well sample plates (Corning Costar #3655) and diluted with 8 μL DMSO. Row-wise serial dilutions were made by transferring 8 μL cpd solution to the next row up to row O. The compound and control solutions were mixed five times and 2 μL were transferred to 384 well assay plates (Corning Costar #3702). Then, 15 μL of 41.7 nM ATX solution was added (30 nM final concentration), mixed five times and then incubated for 15 minutes at 30° C. 10 μL of MR121 substrate solution was added (1 μM final concentration), mixed 30 times and then incubated for 15 minutes at 30° C.

| Compound | IC50 |
| --- | --- |
| Cc1cc(OCc2n[nH]c(=O)n2C)c(C(C)(C)C)cc1Cl [Example A1, 3-[(2-tert-Butyl-4-chloro-5-methylphenoxy)methyl]-4-methyl-1H-1,2,4-triazol-5-one] | 2 nM |
| Cn1c(COc2cc(F)c(Cl)cc2C(C)(C)C)n[nH]c1=O [Example A2] | 10 nM |
| CC(C)c1cc2c(cc1OCc1n[nH]c(=O)n1C)C(C)(C)CC2 [Example A3] | 25 nM |
| Cc1noc(-c2ccc(OCc3n[nH]c(=O)n3C)c(C(C)(C)C)c2)n1 [Example A4] | 59 nM |
| Cn1ccnc1-c1ccc(OCc2n[nH]c(=O)n2C)c(C(C)(C)C)c1 [Example A6] | 523 nM |
| Cn1c(COc2ccc(-c3ncco3)cc2C(C)(C)C)n[nH]c1=O [Example A7] | 13 nM |
| Cn1c(COc2ccc(N3CCOCC3)cc2C(C)(C)C)n[nH]c1=O [Example A8] | 1600 nM |
| Cn1cncc1-c1ccc(OCc2n[nH]c(=O)n2C)c(C(C)(C)C)c1 [Example A9] | 2610 nM |
| Cc1nnc(-c2ccc(OCc3n[nH]c(=O)n3C)c(C(C)(C)C)c2)o1 [Example A10] | 104 nM |
| CC(C)c1cc(C#N)ccc1OCc1n[nH]c(=O)n1C [Example A11] | 15 nM |
| Cc1cc(OCc2n[nH]c(=O)n2C)c(C(C)C)cc1C#N [Example A12] | 1 nM |
| Cn1c(COc2cc(S(C)(=O)=O)c(Cl)cc2C2CC2)n[nH]c1=O [Example A14] | 1890 nM |
| Cn1c(COc2ccc(S(C)(=O)=O)cc2C(C)(C)C)n[nH]c1=O [Example A15] | 230 nM |
| Cc1cc(OCc2n[nH]c(=O)n2C)c(C(C)(C)C)cc1C#N [Example A16] | 5 nM |
| Cc1cc(C(C)(C)C)c(OCc2n[nH]c(=O)n2C)cc1C#N [Example A17] | 35 nM |
| Cc1cc(OCc2n[nH]c(=O)n2C)c(C2CC2)cc1Cl [Example A19] | 15 nM |
| Cc1cc(OCc2n[nH]c(=O)n2C)c(C2CCCCC2)cc1Cl [Example A20] | 8 nM |
| Cc1cc(OCc2n[nH]c(=O)n2C)c(C2CCOCC2)cc1Cl [Example A21] | 62 nM |
| Cn1c(COc2cc(C#N)c(Cl)cc2C2CC2)n[nH]c1=O [Example A22] | 173 nM |
| Cn1c(COc2cc(NS(C)(=O)=O)c(Cl)cc2C2CC2)n[nH]c1=O [Example A23] | > 27000 nM |
| Cn1c(COc2cc(C#N)ccc2C(C)(C)C)n[nH]c1=O [Example A24] | 91 nM |

| Compound | IC50 |
| --- | --- |
| Cn1c(COc2cc(C(N)=O)ccc2C(C)(C)C)n[nH]c1=O [Example A25] | 958 nM |
| Cc1cc(OCc2n[nH]c(=O)n2C(C)C)c(C(C)(C)C)cc1C#N [Example A26, 5-tert-Butyl-2-methyl-4-[(5-oxo-4-propan-2-yl-1H-1,2,4-triazol-3-yl)methoxy]benzonitrile] | 12 nM |
| Cc1ccc(C(C)C)c(OCc2n[nH]c(=O)n2C)c1 [Example A27, 4-Methyl-3-[(5-methyl-2-propan-2-ylphenoxy)methyl]-1H-1,2,4-triazol-5-one] | 19 nM |
| Cc1cc(OCc2n[nH]c(=O)n2C)c(C(C)C)cc1Cl [Example A28] | 5 nM |
| CC(C)c1cc(Cl)ccc1OCc1n[nH]c(=O)n1C [Example A29] | 50 nM |
| Cc1nc2cc(OCc3n[nH]c(=O)n3C)c(C3CC3)cc2s1 [Example A30] | 9 nM |
| Cc1cc(OCc2n[nH]c(=O)n2C)c(C2CCC2)cc1Cl [Example A31] | 19 nM |
| Cn1c(COc2ccc(-c3ncc[nH]3)cc2C(C)(C)C)n[nH]c1=O [Example A32, 3-[[2-tert-butyl-4-(1H-imidazol-2-yl)phenoxy]methyl]-4-methyl-1H-1,2,4-triazol-5-one] | 3770 nM |
| Cn1c(COc2cc(C#N)c(Cl)cc2C(C)(C)C)n[nH]c1=O [Example A34, 4-tert-Butyl-2-chloro-5-[(4-methyl-5-oxo-1H-1,2,4-triazol-3-yl)methoxy]benzonitrile] | 28 nM |
| Cc1cc(OCc2n[nH]c(=O)n2C)c(-c2ccccc2)cc1Cl [Example B1, 3-[(4-Chloro-5-methyl-2-phenylphenoxy)methyl]-4-methyl-1H-1,2,4-triazol-5-one] | 3 nM |
| Cc1cc(OCc2n[nH]c(=O)n2C)c(-c2ccccc2Cl)cc1Cl [Example B2] | 1 nM |
| Cc1cc(OCc2n[nH]c(=O)n2C)c(-c2cccc(Cl)c2)cc1Cl [Example B3] | 1 nM |
| Cc1cc(OCc2n[nH]c(=O)n2C)c(-c2ccc(Cl)cc2)cc1Cl [Example B4] | 6 nM |
| Cc1cc(OCc2n[nH]c(=O)n2C)c(-c2cccc(C#N)c2)cc1Cl [Example B5] | 3 nM |
| Cc1cc(OCc2n[nH]c(=O)n2C)c(-c2cccc(S(C)(=O)=O)c2)cc1Cl [Example B6] | 8 nM |
| Cc1cc(OCc2n[nH]c(=O)n2C)c(-c2ccccc2S(C)(=O)=O)cc1Cl [Example B7] | 4200 nM |
| Cc1cc(OCc2n[nH]c(=O)n2C)c(-c2cccc(C(=O)N3CCCCC3)c2)cc1Cl [Example B8] | 10 nM |
| Cc1cc(OCc2n[nH]c(=O)n2C)c(-c2cccc(C(=O)NC3CCCCC3)c2)cc1Cl [Example B9] | 12 nM |
| Cc1cc(OCc2n[nH]c(=O)n2C)c(-c2cccc(C(=O)N3CCOCC3)c2)cc1Cl [Example B10] | 23 nM |
| Cc1cc(OCc2n[nH]c(=O)n2C)c(-c2cccc(C(N)=O)c2)cc1Cl [Example B11] | 166 nM |
| Cc1cc(OCc2n[nH]c(=O)n2C)c(-c2cccc(C(=O)N(C)C)c2)cc1Cl [Example B12] | 22 nM |

| Compound | IC50 |
| --- | --- |
| Cc1cc(OCc2n[nH]c(=O)n2C)c(-c2cccc(C(=O)Nc3ccccc3)c2)cc1Cl [Example B13] | 6 nM |
| Cc1cc(OCc2n[nH]c(=O)n2C)c(-c2cc(Cl)cc(C(N)=O)c2)cc1Cl [Example B14] | 79 nM |
| Cc1cc(OCc2n[nH]c(=O)n2C)c(-c2cc(C(=O)NC3CC3)ccc2F)cc1Cl [Example B15] | 11 nM |
| Cn1c(COc2ccc(C#N)cc2-c2ccccc2)n[nH]c1=O [Example B16] | 25 nM |
| COCCNC(=O)c1cccc(-c2cc(Cl)c(C)cc2OCc2n[nH]c(=O)n2C)c1 [Example B17] | 16 nM |
| Cc1cc(OCc2n[nH]c(=O)n2C)c(-c2cccnc2Cl)cc1Cl [Example B18] | 52 nM |
| Cc1cc(OCc2n[nH]c(=O)n2C)c(-c2cccc(Cl)n2)cc1Cl [Example B19] | 65 nM |
| Cc1cc(OCc2n[nH]c(=O)n2C)c(-c2cncc(C(N)=O)c2)cc1Cl [Example B20] | 913 nM |
| COc1cccc(-c2cc(Cl)c(C)cc2OCc2n[nH]c(=O)n2C)n1 [Example B21] | 104 nM |
| Cc1cc(OCc2n[nH]c(=O)n2C)c(-c2cnccn2)cc1Cl [Example B22, 3-[(4-Chloro-5-methyl-2-pyrazin-2-ylphenoxy)methyl]-4-methyl-1H-1,2,4-triazol-5-one] | 227 nM |
| Cc1cc(OCc2n[nH]c(=O)n2C)c(-c2ncccn2)cc1Cl [Example B23, 3-[(4-Chloro-5-methyl-2-pyrimidin-2-yl-phenoxy)methyl]-4-methyl-1H-1,2,4-triazol-5-one] | 212 nM |
| Cc1cc(OCc2n[nH]c(=O)n2C)c(-c2cc(C(F)(F)F)nn2C)cc1Cl [Example B24, 3-[[4-Chloro-5-methyl-2-[2-methyl-5-(trifluoromethyl)pyrazol-3-yl]phenoxy]methyl]4-methyl-1H-1,2,4-triazol-5-one] | 126 nM |
| Cc1cc(OCc2n[nH]c(=O)n2C)c(-c2ccno2)cc1Cl [Example B25] | 20 nM |
| Cc1cc(OCc2n[nH]c(=O)n2C)c(-c2cnco2)cc1Cl [Example B26] | 495 nM |
| Cc1cc(OCc2n[nH]c(=O)n2C)c(-c2cncn2C)cc1Cl [Example B27, 3-[[4-Chloro-5-methyl-2-(3-methylimidazol-4-yl)phenoxy]methyl]-4-methyl-1H-1,2,4-triazol-5-one] | 3720 nM |
| Cc1cc(OCc2n[nH]c(=O)n2C)c(-c2cnc[nH]2)cc1Cl [Example B28, 3-[[4-Chloro-2-(1H-imidazol-5-yl)-5-methylphenoxy]methyl]-4-methyl-1H-1,2,4-triazol-5-one] | 5940 nM |
| Cc1cc(OCc2n[nH]c(=O)n2C)c(-c2ncco2)cc1Cl [Example B29, 3-[[4-Chloro-5-methyl-2-(1,3-oxazol-2-yl)phenoxy]methyl]-4-methyl-1H-1,2,4-triazol-5-one] | 78 nM |
| Cc1cc(OCc2n[nH]c(=O)n2C)c(-c2ccnn2C)cc1Cl [Example B30] | 467 nM |
| Cn1c(COc2cc(Cl)c(C#N)cc2-c2ccccc2)n[nH]c1=O [Example B31] | 43 nM |
| Cn1c(COc2cc(Cl)c(C#N)cc2-c2ccc(F)cc2)n[nH]c1=O [Example B32] | 31 nM |
| CNC(=O)c1cccc(-c2cc(C#N)c(Cl)cc2OCc2n[nH]c(=O)n2C)c1 [Example B33] | 115 nM |
